We go through 22 molecules from patent publication US8461152B2, “Arylcyclohexylethers of dihydrotetraazabenzoazulenes” (Hoffmann-La Roche Inc., priority 2008, dated 2013).

Molecules are shown by their SMILES. Structures can show the parent of a compound that is named as a salt.

The target in this experiment is T1, human V1a receptor (Homo sapiens, UniProt P37288).
T1 construct: expressed in transfected cells; host or cells: HEK293 cells, transiently transfected; membrane preparation
T1 sequence (P37288 whole entry): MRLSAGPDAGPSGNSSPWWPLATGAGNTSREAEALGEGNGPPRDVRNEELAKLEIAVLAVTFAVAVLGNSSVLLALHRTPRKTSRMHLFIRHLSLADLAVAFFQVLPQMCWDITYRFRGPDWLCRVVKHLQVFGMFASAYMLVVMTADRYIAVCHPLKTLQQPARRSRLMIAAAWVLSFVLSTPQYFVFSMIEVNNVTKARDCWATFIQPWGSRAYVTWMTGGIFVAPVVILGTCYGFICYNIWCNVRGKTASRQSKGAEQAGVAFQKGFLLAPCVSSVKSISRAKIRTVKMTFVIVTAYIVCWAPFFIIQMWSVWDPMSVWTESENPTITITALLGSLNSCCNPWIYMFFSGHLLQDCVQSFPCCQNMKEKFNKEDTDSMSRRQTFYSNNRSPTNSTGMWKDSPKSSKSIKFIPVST
The experiment in a line: human V1a receptor binding studies (SPA, 3H-Vasopressin, membranes of transfected HEK293 cells). To be noted: displacement of 3H-Vasopressin, HEK293 cell membranes, 1 h at room temperature; Ki by Cheng-Prussoff equation; read-out: pKi (hV1a) (converted). The method, then: The human V1a receptor was cloned by RT-PCR from total human liver RNA. The coding sequence was subcloned in an expression vector after sequencing to confirm the identity of the amplified sequence. […] Cell membranes were prepared from HEK293 cells transiently transfected with the expression vector and grown in 20 liter fermenters with the following protocol.
50 g of cells are resuspended in 30 ml freshly prepared ice cold Lysis buffer (50 mM HEPES, 1 mM EDTA, 10 mM magnesium dichloride adjusted to pH=7.4+complete cocktail of protease inhibitor (Roche Diagnostics)). Homogenized with Polytron for 1 min and sonicated on ice for 2×2 minutes at 80% intensity (Vibracell sonicator). The preparation is centrifuged 20 min at 500 g at 4° C., the pellet is discarded and the supernatant centrifuged 1 hour at 43'000 g at 4° C. (19'000 rpm). The pellet is resuspended in 12.5 ml Lysis buffer+12.5 ml Sucrose 20% and homogenized using a Polytron for 1-2 min. The protein concentration is determined by the Bradford method and aliquots are stored at −80° C. until use. For binding studies 60 mg Yttrium silicate SPA beads (Amersham) are mixed with an aliquot of membrane in binding buffer (50 mM Tris, 120 mM sodium chloride, 5 mM potassium chloride, 2 mM Calcium dichloride, 10 mM magnesium dichloride) for 15 minutes with mixing. 50 μl of bead/membrane mixture is then added to each well of a 96 well plate, followed by 50 μl of 4 nM 3H-Vasopressin (American Radiolabeled Chemicals). For total binding measurement 100 μl of binding buffer are added to the respective wells, for non-specific binding 100 μl of 8.4 mM cold vasopressin and for compound testing 100 μl of a serial dilution of each compound in 2% dimethyl sulfoxide. The plate is incubated 1 h at room temperature, centrifuged […] at 1000 g and counted on a Packard Top-Count. Non-specific binding counts are subtracted from each well and data is normalized to the maximum specific binding set at 100%. To calculate an IC 50 the curve is fitted using a non-linear regression model (XLfit) and the Ki is calculated using the Cheng-Prussoff equation.
A general note: In a radioligand displacement assay an active substance lowers the binding of a labelled ligand.
In the case of `Cc1cccc(O[C@H]2CC[C@H](c3nnc4n3-c3ccc(Cl)cc3CNC4)CC2)c1` [Example 36, trans-8-Chloro-1-(4-m-tolyloxy-cyclohexyl)-5,6-dihydro-4H-2,3,5,10b-tetraaza-benzo[e]azulene hydrochloride], the Ki was 7.59 nM. As to `Cc1cccc(O[C@H]2CC[C@H](c3nnc4n3-c3ccc(Cl)cc3CN(C)C4)CC2)c1` [Example 37, trans-8-Chloro-5-methyl-1-(4-m-tolyloxy-cyclohexyl)-5,6-dihydro-4H-2,3,5,10b-tetraaza-benzo[e]azulene], the Ki is 1.7 nM.

As for `CC(C)(C)OC(=O)N1Cc2cc(Cl)ccc2-n2c(nnc2[C@H]2CC[C@H](Oc3cccc(C(C)(C)C)c3)CC2)C1` [Example 38, trans-1-[4-(3-tert-Butyl-phenoxy)-cyclohexyl]-8-chloro-4H,6H-2,3,5,10b-tetraaza-benzo[e]azulene-5-carboxylic acid tert-butyl ester], the Ki is 18.2 nM. As to `CC(C)(C)OC(=O)N1Cc2cc(Cl)ccc2-n2c(nnc2[C@H]2CC[C@H](Oc3ccccc3F)CC2)C1` [Example 43, trans-8-Chloro-1-[4-(2-fluoro-phenoxy)-cyclohexyl]-4H,6H-2,3,5,10b-tetraaza-benzo[e]azulene-5-carboxylic acid tert-butyl ester], the Ki was 6.17 nM. Turning to `Fc1ccccc1O[C@H]1CC[C@H](c2nnc3n2-c2ccc(Cl)cc2CNC3)CC1` [Example 44, trans-8-Chloro-1-[4-(2-fluoro-phenoxy)-cyclohexyl]-5,6-dihydro-4H-2,3,5,10b-tetraaza-benzo[e]azulene hydrochloride], the Ki was 3.39 nM. For the molecule `CN1Cc2cc(Cl)ccc2-n2c(nnc2[C@H]2CC[C@H](Oc3ccccc3F)CC2)C1` [Example 45, trans-8-Chloro-1-[4-(2-fluoro-phenoxy)-cyclohexyl]-5-methyl-5,6-dihydro-4H-2,3,5,10b-tetraaza-benzo[e]azulene], the Ki is 3.63 nM. As for `CC(C)(C)OC(=O)N1Cc2cc(Cl)ccc2-n2c(nnc2[C@H]2CC[C@H](Oc3ccccc3C#N)CC2)C1` [Example 46, trans-8-Chloro-1-[4-(2-cyano-phenoxy)-cyclohexyl]-4H,6H-2,3,5,10b-tetraaza-benzoazulene-5-carboxylic acid tert-butyl ester], the Ki is 2.88 nM. For `N#Cc1ccccc1O[C@H]1CC[C@H](c2nnc3n2-c2ccc(Cl)cc2CNC3)CC1` [Example 47, trans-2-[4-(8-Chloro-5,6-dihydro-4H-2,3,5,10b-tetraaza-benzo[e]azulen-1-yl)-cyclohexyloxy]-benzonitrile hydrochloride], the Ki was 1.2 nM. The figure for `CN1Cc2cc(Cl)ccc2-n2c(nnc2[C@H]2CC[C@H](Oc3ccccc3C#N)CC2)C1` [Example 48, trans-2-[4-(8-Chloro-5-methyl-5,6-dihydro-4H-2,3,5,10b-tetraaza-benzoazulen-1-yl)-cyclohexyloxy]-benzonitrile] is 0.794 nM. As for `Cc1ccccc1O[C@H]1CC[C@H](c2nnc3n2-c2ccc(Cl)cc2CN(C(=O)OC(C)(C)C)C3)CC1` [Example 49, trans-8-Chloro-1-(4-o-tolyloxy-cyclohexyl)-4H,6H-2,3,5,10b-tetraaza-benzoazulene-5-carboxylic acid tert-butyl ester], the Ki is 7.08 nM. Turning to `Cc1ccccc1O[C@H]1CC[C@H](c2nnc3n2-c2ccc(Cl)cc2CN(C)C3)CC1` [Example 51, trans-8-Chloro-5-methyl-1-(4-o-tolyloxy-cyclohexyl)-5,6-dihydro-4H-2,3,5,10b-tetraaza-benzoazulene], the Ki was 3.72 nM. For `CC(C)(C)OC(=O)N1Cc2cc(Cl)ccc2-n2c(nnc2[C@H]2CC[C@H](Oc3cc(F)cc(F)c3)CC2)C1` [Example 52, trans-8-Chloro-1-[4-(3,5-difluoro-phenoxy)-cyclohexyl]-4H,6H-2,3,5,10b-tetraaza-benzoazulene-5-carboxylic acid tert-butyl ester], the Ki was 3.47 nM. For the molecule `CN1Cc2cc(Cl)ccc2-n2c(nnc2[C@H]2CC[C@H](Oc3cc(F)cc(F)c3)CC2)C1` [Example 54, trans-8-Chloro-1-[4-(3,5-difluoro-phenoxy)-cyclohexyl]-5-methyl-5,6-dihydro-4H-2,3,5,10b-tetraaza-benzoazulene], the Ki was 3.89 nM. Then `CC(C)(C)OC(=O)N1Cc2cc(Cl)ccc2-n2c(nnc2[C@H]2CC[C@H](Oc3ccc4ccccc4c3)CC2)C1` [Example 55, trans-8-Chloro-1-[4-(naphthalen-2-yloxy)-cyclohexyl]-4H,6H-2,3,5,10b-tetraaza-benzoazulene-5-carboxylic acid tert-butyl ester], with 9.33 nM. For the molecule `CN1Cc2cc(Cl)ccc2-n2c(nnc2[C@H]2CC[C@H](Oc3ccc4ccccc4c3)CC2)C1` [Example 57, trans-8-Chloro-5-methyl-1-[4-(naphthalen-2-yloxy)-cyclohexyl]-5,6-dihydro-4H-2,3,5,10b-tetraaza-benzoazulene], the Ki is 5.75 nM. Regarding `CC(C)(C)OC(=O)N1Cc2cc(Cl)ccc2-n2c(nnc2[C@H]2CC[C@H](Oc3cccnc3)CC2)C1` [Example 61, trans-8-Chloro-1-[4-(pyridin-3-yloxy)-cyclohexyl]-4H,6H-2,3,5,10b-tetraaza-benzoazulene-5-carboxylic acid tert-butyl ester], the Ki is 1.51 nM.

For the molecule `CN1Cc2cc(Cl)ccc2-n2c(nnc2[C@H]2CC[C@H](Oc3cccnc3)CC2)C1` [Example 63, trans-8-Chloro-5-methyl-1-[4-(pyridin-3-yloxy)-cyclohexyl]-5,6-dihydro-4H-2,3,5,10b-tetraaza-benzoazulene], the Ki was 4.57 nM. The figure for `CC(C)(C)OC(=O)N1Cc2cc(Cl)ccc2-n2c(nnc2[C@H]2CC[C@H](Oc3cncc(Cl)c3)CC2)C1` [Example 64, trans-8-Chloro-1-[4-(5-chloro-pyridin-3-yloxy)-cyclohexyl]-4H,6H-2,3,5,10b-tetraaza-benzoazulene-5-carboxylic acid tert-butyl ester] is 9.55 nM; for `CN1Cc2cc(Cl)ccc2-n2c(nnc2[C@H]2CC[C@H](Oc3cncc(Cl)c3)CC2)C1` [Example 66, trans-8-Chloro-1-[4-(5-chloro-pyridin-3-yloxy)-cyclohexyl]-5-methyl-5,6-dihydro-4H-2,3,5,10b-tetraaza-benzoazulene] it is 9.12 nM. In the case of `CC(C)(C)OC(=O)N1Cc2cc(Cl)ccc2-n2c(nnc2[C@H]2CC[C@H](Oc3ccccn3)CC2)C1` [Example 67, trans-8-Chloro-1-[4-(pyridin-2-yloxy)-cyclohexyl]-4H,6H-2,3,5,10b-tetraaza-benzoazulene-5-carboxylic acid tert-butyl ester], the Ki was 3.31 nM. Turning to `Clc1ccc2c(c1)CNCc1nnc([C@H]3CC[C@H](Oc4ccccn4)CC3)n1-2` [Example 68, trans-8-Chloro-1-[4-(pyridin-2-yloxy)-cyclohexyl]-5,6-dihydro-4H-2,3,5,10b-tetraaza-benzoazulene hydrochloride], the Ki was 6.17 nM.

For the molecule `CN1Cc2cc(Cl)ccc2-n2c(nnc2[C@H]2CC[C@H](Oc3ccccn3)CC2)C1` [Example 69, trans-8-Chloro-5-methyl-1-[4-(pyridin-2-yloxy)-cyclohexyl]-5,6-dihydro-4H-2,3,5,10b-tetraaza-benzoazulene], the Ki was 1.1 nM.
